Test results reported in patent US12453740B2, “Nucleic acids for cell recognition and integration” (Emory University, priority 2018, dated 2025).

Columns and labels:
[1] = tested on: chromosomes of plasma cells; experiment: Incorporation of labeled ctDNA into chromosomes with NHEJ, PARP and integrase inhibitors (Example 6); assay type: cell-based, human; conditions: DNA-PKCS inhibitor I 200 nM; KU-55933; raltegravir 30 nM; NU1025 200 nM
Procedure: For further evaluation, chromosome spreads from MM and lung cancer cell lines were cultured with covalently labeled ctDNA obtained from patients with MM.

[2] = tested on: MM (MM1S), PC (ASPC-1), and CC (HCT 116) cell lines; experiment: ctDNA integration with NHEJ, alternative pathway and transposase inhibitors (Example 25); assay type: cell-based, human; conditions: 2 hours pretreatment; DNA-PKCS inhibitor I 30 μM, KU-55933 10 μM, raltegravir 100 nM; compared to control or NU1025 200 μM
Procedure: About 10^6 MM1s, PANC1 and HCT-116 cells were treated for 2 hours with inhibitors of the non-homologous end join (NHEJ) repair system such as KU-55933 (ATM inhibitor, 10 μM) and DNA-PKCS inhibitor I, (30 μM), alternative repair pathway such as a poly ADP ribose polymerase inhibitor NU1025 (PARP, 200 μM) and an integrase/transposase inhibitor (raltegravir, 100 nM). After treatment with inhibitors, rhodamine-labeled ctDNA construct was added to the culture media for 24 hours. Cells were then arrested, and chromosome spreads were obtained as noted above. Integration site counts per cell were obtained after counting a minimum of 20 metaphases (FIG. 32).
Transposable elements (TEs) can play an important role in the mechanism of HGT observed in prokaryotes and few cases of eukaryotes (insects and plants). Thus, it was investigated whether inhibition of transposable elements could reduce or prevent ctDNA integration into chromatids. To that end, cells were treated for 2 hours with raltegravir, a transposase inhibitor, before the addition of ctDNA into culture media. For controls, inhibitors of ATM (KU-55933), DNPkc (DNA-PKCS inhibitor I) and PARP (NU1025) were used. […]

Row | SMILES | Incorporation of labeled ctDNA into chromosomes [1] | integration of ctDNA (rhodamine bands into the chromosomes) [2]
1 | O=c1cc(-c2cccc3c2Sc2ccccc2S3)oc(N2CCOCC2)c1 [KU-55933] | reduced significantly | significantly reduced
2 | Cc1nc2c(O)cccc2c(=O)[nH]1 [NU1025] | less so | 
3 | Cc1nnc(C(=O)NC(C)(C)c2nc(C(=O)NCc3ccc(F)cc3)c(O)c(=O)n2C)o1 [raltegravir] | reduced significantly | significantly reduced
